Measurements as given in US20100216767A1, “QUINAZOLINES FOR PDK1 INHIBITION” (priority 2006, published 2010).

Biological target: T1, PDK1 kinase (Homo sapiens, UniProt O15530)
T1 sequence (O15530 1-556): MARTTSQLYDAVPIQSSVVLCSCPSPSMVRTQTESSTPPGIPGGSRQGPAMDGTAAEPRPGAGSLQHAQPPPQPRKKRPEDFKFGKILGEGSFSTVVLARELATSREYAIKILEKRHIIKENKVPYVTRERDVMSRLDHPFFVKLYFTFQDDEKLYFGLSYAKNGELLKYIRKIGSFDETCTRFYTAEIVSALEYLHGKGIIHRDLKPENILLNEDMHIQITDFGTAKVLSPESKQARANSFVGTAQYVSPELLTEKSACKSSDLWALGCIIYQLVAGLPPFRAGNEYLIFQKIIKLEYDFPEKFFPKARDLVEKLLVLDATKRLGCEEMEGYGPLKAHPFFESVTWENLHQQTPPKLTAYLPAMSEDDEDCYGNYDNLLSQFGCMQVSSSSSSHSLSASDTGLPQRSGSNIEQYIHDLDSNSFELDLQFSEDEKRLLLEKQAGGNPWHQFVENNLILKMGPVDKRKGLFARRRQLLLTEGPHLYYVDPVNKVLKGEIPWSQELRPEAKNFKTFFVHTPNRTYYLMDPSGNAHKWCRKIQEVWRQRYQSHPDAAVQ
Test: PDK1 Kinase Alpha Screen Assay
Format: biochemical
Conditions: Table 1; 10 μM ATP, 50 nM PDK1-4 peptide
Experimental: Reagents/Concentrations: The PDK1-4 peptide substrate, biotin-[…]-NH2, (SEQ ID NO: 1), was purchased from the Tufts University Core Facility. The final concentration of PDK1-4 peptide substrate was 50 nM. The ATP substrate (adenosine-[…] triphosphate) was purchased from Roche Diagnostics. The final concentration of ATP substrate was 10 μM. Phospho-(Ser/Thr) PKA substrate antibody was purchased from Cell Signaling Technology. The final concentration of antibody was 0.3 mg/mL. The Alpha Screen Protein A detection kit containing donor and acceptor beads was purchased from PerkinElmer Life Sciences. The final concentration of both donor and acceptor beads was 25 μg/mL. Alpha Screen was used for detection. The biotinylated-PDK1-4 peptide was phosphorylated by PDK1 kinase using the ATP substrate. The biotinylated-PDK1-4 peptide substrate was bound to the streptavidin coated donor bead. The antibody was bound to the protein A coated acceptor bead. The antibody bound to the phosphorylated form of the biotinylated PDK-1 peptide substrate, bringing the donor and acceptor beads into close proximity. Laser irradiation of the donor bead at 680 nm generated a flow of short-lived singlet oxygen molecules. When the donor and acceptor beads were in close proximity, the reactive oxygen generated by the irradiation of the donor beads initiated a luminescence/fluorescence cascade in the acceptor beads. This process led to a highly amplified signal with output in the 530-620 nm range. Assays were carried out in 50 mM Tris, pH=7.5, 10 mM MgCl2, 0.1% BSA, 0.01% Tween-20, 2 mM dithiolthreitol, 2.5% dimethyl sulfoxide. Reactions were stopped by adding 50 mM Tris, pH=7.5, 90 mM EDTA, 0.1% BSA, 0.01% Tween-20.
Procedure: To 10 μl, of PDK1-4 peptide, […] of test compound in dimethyl sulfoxide was added. PDK1 kinase and ATP were mixed, and 10 μL of the PDK1 kinase/ATP mix was added to start the reaction. The reaction was allowed to proceed for 3-18 hours. The reactions were then stopped by adding 10 μL of the EDTA-containing stop buffer. Beads were mixed with antibody, and 25 μL of the bead/antibody mix was then added to the stopped reactions. Plates were incubated at room temperature overnight to allow for detection development before being read. The assay was run in a 384-well format plate.

COc1cc(Br)cc2cnc(Nc3ccc(S(N)(=O)=O)cc3)nc12 [Example 1, 4-(6-Bromo-8-methoxyquinazolin-2-ylamino)benzenesulfonamide]
IC50: < 5 µM

C#Cc1cc(OC)c2nc(Nc3ccc(S(N)(=O)=O)cc3)ncc2c1 [Example 2, 4-(6-Ethynyl-8-methoxyquinazolin-2-ylamino)benzenesulfonamide]
IC50: < 5 µM

CCc1cc(OC)c2nc(Nc3ccc(S(N)(=O)=O)cc3)ncc2c1 [Example 3, 4-(6-Ethyl-8-methoxyquinazolin-2-ylamino)benzenesulfonamide]
IC50: < 5 µM

COc1cc(C#N)cc2cnc(Nc3ccc(S(N)(=O)=O)cc3)nc12 [Example 4, 4-(6-cyano-8-methoxyquinazolin-2-ylamino)benzene-sulfonamide]
IC50: < 5 µM

COc1cc(C)cc2cnc(Nc3ccc(S(N)(=O)=O)cc3)nc12 [Example 5, 4-(8-Methoxy-6-methylquinazolin-2-ylamino)benzenesulfonamide]
IC50: < 5 µM

CC(=O)Nc1cc(CN(C)C)cc(Nc2ncc3cc(Br)cc(Cl)c3n2)c1 [Example 6, N-(3-(6-Bromo-8-chloroquinazolin-2-ylamino)-5-((dimethylamino)-methyl)phenyl)acetamide]
IC50: < 5 µM

C#Cc1cc(Cl)c2nc(Nc3cc(CN(C)C)cc(NC(C)=O)c3)ncc2c1 [Example 7, N-(3-(8-Chloro-6-ethynylquinazolin-2-ylamino)-5((dimethylamino)methyl)-phenyl)acetamide]
IC50: < 5 µM

C#Cc1ccc2nc(Nc3ccc(S(N)(=O)=O)cc3)ncc2c1 [Example 10, 4(6-Ethynylquinazolin-2-ylamino)benzenesulfonamide]
IC50: < 5 µM

CC(C)NC(=O)c1ccc(Nc2ncc3cc(-c4nccs4)ccc3n2)cc1 [Example 12, N-Isopropyl-4-(6-(thiazol-2-yl)quinazolin-2-ylamino)benzamide]
IC50: < 5 µM

CC(C)NC(=O)c1ccc(Nc2ncc3cc(C#N)ccc3n2)cc1 [Example 13, 4-(6-Cyanoquinazolin-2-ylamino)-N-Isopropylbenzamide]
IC50: < 5 µM

COc1cc(Br)c(Cl)c2cnc(Nc3cc(CN(C)C)cc(NC(C)=O)c3)nc12 [Example 14, N-(3-(6-Bromo-5-chloro-8-methoxyquinazolin-2-ylamino)-5-((dimethylamino)methyl)phenyl)acetamide]
IC50: < 5 µM

NS(=O)(=O)c1ccc(Nc2ncc3cc(C(=O)O)ccc3n2)cc1 [Example 19, Methyl 2-(4-sulfamoylphenylamimo)quinazolin-6-carboxylic acid]
IC50: < 5 µM

C#Cc1ccc2nc(Nc3ccc(C(=O)N4CCOCC4)cc3)ncc2c1Cl [Example 22, (4-(5-Chloro-6-ethynylquinazolin-2-ylamino)phenyl)(morpholino) methanone]
IC50: < 5 µM

Fc1c(Br)ccc2nc(Nc3ccc(N4CCOCC4)cc3)ncc12 [Example 23, 6-Bromo-5-fluoro-N-(4-morpholinophenyl)quinazolin-2-amine]
IC50: < 5 µM

C#Cc1ccc2nc(Nc3ccc(N4CCOCC4)cc3)ncc2c1F [Example 24, 6-Ethynyl-5-fluoro-N-(4-morpholinophenyl)quinazolin-2-amine]
IC50: < 5 µM

NS(=O)(=O)c1ccc(Nc2ncc3cc(-c4nccs4)ccc3n2)cc1 [Example 27, 4-(6-(Thiazol-2-yl)quinazolin-2-ylamino)benzenesulfonamide]
IC50: < 5 µM

CC(=O)Nc1cc(CN2CCOCC2)cc(Nc2ncc3cc(-c4cn[nH]c4)ccc3n2)c1 [Example 30, N-(3-(6-(1H-Pyrazol-4-yl)quinazolin-2-ylamino)-5-(morpholinomethyl)phenyl)acetamide]
IC50: < 5 µM

CC(=O)Nc1cc(I)cc(Nc2ncc3cc(Br)ccc3n2)c1 [Example 31, N-(3-(6-Bromoquinazolin-2-ylamino)-5-iodophenyl)acetamide]
IC50: < 5 µM

CC(=O)Nc1cc(Nc2ncc3cc(Br)ccc3n2)cc(-c2cccnc2)c1 [Example 32, N-(3-(6-Bromoquinazolin-2-ylamino)-5-(pyridine-3-yl)phenyl)acetamide]
IC50: < 5 µM

C#Cc1ccc2nc(Nc3cc(NC(C)=O)cc(-c4cccnc4)c3)ncc2c1 [Example 34, N-(3-(6-Ethynylyquinazolin-2-ylamino)-5-(pyridine-3-yl)phenyl)acetamide]
IC50: < 5 µM

COc1cc2cnc(Nc3ccc(S(N)(=O)=O)cc3)nc2cc1OC [Example 35, 4-(6,7-Dimethoxyquinazolin-2-ylamino)benzenesulfonamide]
IC50: < 5 µM

COc1ccc2nc(Nc3ccc(C(N)=O)cc3)ncc2c1 [Example 36, 4-(6-methoxyquinazolin-2-ylamino)benzamide]
IC50: < 5 µM

CNC(=O)c1ccc2nc(Nc3ccc(S(N)(=O)=O)cc3)ncc2c1 [Example 37, N-methyl-2-(4-sulfamoyl-phenylamino)quinazoline-6-carboxamide]
IC50: 5 to 10 µM

NC(=O)c1ccc2nc(Nc3ccc(S(N)(=O)=O)cc3)ncc2c1 [Example 42, 2-(4-sulfamoylphenyl-amino)quinazoline-6-carboxamide]
IC50: < 5 µM

NS(=O)(=O)c1ccc(Nc2ncc3cc(C(=O)NC4CC4)ccc3n2)cc1 [Example 43, N-cyclopropyl-2-(4-sulfamoylphenylamino)-quinazoline-6-carboxamide]
IC50: < 5 µM

NS(=O)(=O)c1ccc(Nc2ncc3cc(-c4cccnc4F)ccc3n2)cc1 [Example 44, 4-(6-(2-fluoropyridin-3-yl)quinazolin-2-ylamino)-benzenesulfonamide]
IC50: < 5 µM

CN1CCN(c2cc(-c3ccc4nc(Nc5ccc(S(N)(=O)=O)cc5)ncc4c3)ccn2)CC1 [Example 45, 4-(6-(2-(4-methyl-piperazin-1-yl)pyridin-4-yl)quinazolin-2-ylamino)-benzenesulfonamide]
IC50: < 5 µM

COc1cc2nc(Nc3ccc(S(N)(=O)=O)cc3)ncc2cc1Br [Example 47, 4-(6-Bromo-7-methoxyquinazolin-2-ylamino)benzenesulfonamide]
IC50: < 5 µM

COc1cc2nc(Nc3ccc(S(=O)(=O)N4CCOCC4)cc3)ncc2cc1Br [Example 48, 6-bromo-7-methoxy-N-(4-(morpholinosulfonyl)phenyl)-quinazolin-2-amine]
IC50: < 5 µM

C#Cc1cc2cnc(Nc3ccc(S(N)(=O)=O)cc3)nc2cc1OC [Example 49, 4-(6-ethynyl-7-methoxy-quinazolin-2-ylamino)-benzenesulfonamide]
IC50: < 5 µM

C#Cc1cc2cnc(Nc3ccc(S(=O)(=O)N4CCOCC4)cc3)nc2cc1OC [Example 50, 6-ethynyl-7-methoxy-N-(4-(morpholinosulfonyl)-phenyl)-quinazolin-2-amine]
IC50: < 5 µM

C#Cc1ccc2nc(Nc3cccc(N4CCOCC4)c3)ncc2c1 [Example 51, 6-ethynyl-N-(3-morpholinophenyl)-quinazolin-2-amine]
IC50: < 5 µM

COc1cc(C#Cc2cccnc2)cc2cnc(Nc3ccc(S(N)(=O)=O)cc3)nc12 [Example 53, 4-(8-methoxy-6-(pyridin-3-ylethynyl)quinazolin-2-ylamino)benzene-sulfonamide]
IC50: 10 to 25 µM

Cc1ccc2nc(Nc3ccc(S(N)(=O)=O)cc3)ncc2c1 [Example 54, 4-(6-methylquinazolin-2-ylamino)benzene-sulfonamide]
IC50: < 5 µM

Cn1cc(-c2ccc3nc(Nc4ccc(S(N)(=O)=O)cc4)ncc3c2)cn1 [Example 56, 4-(6-(1-methyl-1H-pyrazol-4-yl)quinazolin-2-ylamino)benzene-sulfonamide]
IC50: < 5 µM

C#Cc1ccc2nc(Nc3ccc(N4CCOCC4)cc3)ncc2c1 [Example 57, 6-ethynyl-N-(4-morpholinophenyl)-quinazolin-2-amine]
IC50: < 5 µM

C#Cc1ccc2nc(Nc3ccc(C(N)=O)cc3)ncc2c1 [Example 58, 4-(6-ethynylquinazolin-2-ylamino)benzamide]
IC50: < 5 µM

C#Cc1ccc2nc(Nc3cccc(C(N)=O)c3)ncc2c1 [Example 59, 3-(6-ethynylquinazolin-2-ylamino)benzamide]
IC50: < 5 µM
